Reference: publication PMC6208323 (Cell chemical biology, 2018)
Where two headings read alike, the source gives them in different places.

Key:
TnmS1 = TnmS1 (Streptomyces sp. CB03234, UniProt A0A125SA24); assay: fluorescence quenching; type: binding
(UniProt S2XVS8) = assay: fluorescence quenching; type: binding, Streptomyces sp. HGB0020
TnmS3 = TnmS3 (Streptomyces sp. CB03234, UniProt A0A125SA29); assay: fluorescence quenching; type: binding
CBFG_04671 = CBFG_04671 (Clostridium pacaense, UniProt A0ABV1D2N3); assay: fluorescence quenching; type: binding
TnmS2 = TnmS2 (Streptomyces sp. CB03234, UniProt A0A125SA26); assay: fluorescence quenching; type: binding
[1] = target: TnmS1 (Streptomyces sp. CB03234); assay: SEC
[2] = target: TnmS2 (Streptomyces sp. CB03234); assay: SEC
[3] = target: TnmS3 (Streptomyces sp. CB03234); assay: SEC
[4] = 20 mM MOPS pH 7.0, 28 °C, 2 μM protein, ligand in DMSO

Sequence of (UniProt S2XVS8) (S2XVS8 1-128): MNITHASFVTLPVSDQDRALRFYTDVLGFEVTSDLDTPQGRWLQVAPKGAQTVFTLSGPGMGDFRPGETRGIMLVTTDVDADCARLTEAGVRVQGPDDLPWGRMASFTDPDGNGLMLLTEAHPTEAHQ

Compound: COc1ccc2c(c1O)C(=O)c1c3c(cc(O)c1C2=O)[C@@]12O[C@@]1([C@@H](C)O)[C@H](C#C/C=C\C#C[C@H]2O)N3 [TNM A]
- Kd (TnmS1): 163 ± 17 nM
- Kd ((UniProt S2XVS8)): 164 ± 23 nM
- Kd (TnmS3): 108 ± 13 nM
- Kd (CBFG_04671): 855 ± 66 nM
- Kd (TnmS2): 246 ± 36 nM

Compound: Cc1cc2nc3c(=O)[nH]c(=O)nc-3n(C[C@H](O)[C@H](O)[C@H](O)CO)c2cc1C [riboflavin]
- Kd (TnmS1): 84100 nM
- Kd (TnmS3): 1100 nM
- Kd (TnmS2): 59500 nM

Compound: TNM C
- Kd (TnmS1; [4]): 350 ± 41 nM
- Kd (TnmS3; [4]): 215 ± 27 nM
- Kd (TnmS2; [4]): 361 ± 65 nM

Compound: TnmS1 (natural protein)
- stoichiometry N [1]: 2

Compound: TnmS2 (natural protein)
- stoichiometry N [2]: 2

Compound: TnmS3 (natural protein)
- stoichiometry N [3]: 2
